# Experimental data: ChEMBL document CHEMBL3856199, “Melanoma-targeted delivery system (part 2): Synthesis, radioiodination and biological evaluation in B16F0 bearing mice” (Eur J Med Chem, 2016)
# How the values were obtained:
# [1] = Ratio of drug uptake in tumor to muscle in C57BL/6J mouse implanted with mouse B16F0 cells at 3.7 MBq, iv measured at 24 hrs post injection; format: ADME, organism-based; conditions: in vivo
# [2] = Drug uptake in stomach of C57BL/6J mouse implanted with mouse B16F0 cells at 3.7 MBq, iv measured at 1 hr post injection by gamma counting analysis; format: ADME, organism-based; conditions: in vivo
# [3] = Drug uptake in muscles of C57BL/6J mouse implanted with mouse B16F0 cells at 3.7 MBq, iv measured at 1 hr post injection by gamma counting analysis; format: ADME, organism-based, Muscle tissue; conditions: in vivo
# Mus musculus [4] = assay: Toxicity in C57BL/6J mouse assessed as closed eyes at 3.7 MBq, iv measured up to 72 hrs post injection; format: organism-based; conditions: in vivo
# [5] = Ratio of drug uptake in tumor to muscle in C57BL/6J mouse implanted with mouse B16F0 cells at 3.7 MBq, iv measured at 3 hrs post injection; format: ADME, organism-based; conditions: in vivo
# [6] = Drug uptake in tumor of C57BL/6J mouse implanted with mouse B16F0 cells at 3.7 MBq, iv measured at 6 hrs post injection by gamma counting analysis; format: ADME, organism-based, Neoplasm; conditions: in vivo
# [7] = Ratio of drug uptake in tumor to blood in C57BL/6J mouse implanted with mouse B16F0 cells at 3.7 MBq, iv measured at 6 hrs post injection; format: ADME, organism-based; conditions: tumour
# [8] = Drug uptake in stomach of C57BL/6J mouse implanted with mouse B16F0 cells at 3.7 MBq, iv measured at 72 hrs post injection by gamma counting analysis; format: ADME, organism-based; conditions: in vivo
# Mus musculus [9] = assay: Toxicity in C57BL/6J mouse assessed as rough coat at 3.7 MBq, iv measured up to 72 hrs post injection; format: organism-based; conditions: in vivo
# [10] = Drug uptake in kidney of C57BL/6J mouse implanted with mouse B16F0 cells at 3.7 MBq, iv measured at 3 hrs post injection by gamma counting analysis; format: ADME, organism-based; conditions: in vivo
# [11] = Ratio of drug uptake in tumor to blood in C57BL/6J mouse implanted with mouse B16F0 cells at 3.7 MBq, iv measured at 72 hrs post injection; format: ADME, organism-based
# [12] = Drug uptake in eyes of C57BL/6J mouse implanted with mouse B16F0 cells at 3.7 MBq, iv measured at 24 hrs post injection by gamma counting analysis; format: ADME, organism-based, Eye; conditions: in vivo
# [13] = Drug uptake in liver of C57BL/6J mouse implanted with mouse B16F0 cells at 3.7 MBq, iv measured at 24 hrs post injection by gamma counting analysis; format: ADME, organism-based; conditions: in vivo
# [14] = Drug uptake in liver of C57BL/6J mouse implanted with mouse B16F0 cells at 3.7 MBq, iv measured at 3 hrs post injection by gamma counting analysis; format: ADME, organism-based; conditions: in vivo
# [15] = Drug uptake in thyroid/submaxillary glands of C57BL/6J mouse implanted with mouse B16F0 cells at 3.7 MBq, iv measured at 6 hrs post injection by gamma counting analysis; format: ADME, organism-based, Submaxillary gland/Thyroid; conditions: in vivo
# [16] = Drug uptake in kidney of C57BL/6J mouse implanted with mouse B16F0 cells at 3.7 MBq, iv measured at 24 hrs post injection by gamma counting analysis; format: ADME, organism-based; conditions: in vivo
# [17] = Ratio of drug uptake in tumor to blood in C57BL/6J mouse implanted with mouse B16F0 cells at 3.7 MBq, iv measured at 3 hrs post injection; format: ADME, organism-based
# [18] = Drug uptake in liver of C57BL/6J mouse implanted with mouse B16F0 cells at 3.7 MBq, iv measured at 1 hr post injection by gamma counting analysis; format: ADME, organism-based; conditions: in vivo
# [19] = Drug uptake in blood of C57BL/6J mouse implanted with mouse B16F0 cells at 3.7 MBq, iv measured at 1 hr post injection by gamma counting analysis; format: ADME, organism-based; conditions: in vivo
# [20] = Drug uptake in blood of C57BL/6J mouse implanted with mouse B16F0 cells at 3.7 MBq, iv measured at 3 hrs post injection by gamma counting analysis; format: ADME, organism-based; conditions: in vivo
# [21] = Ratio of drug uptake in tumor to blood in C57BL/6J mouse implanted with mouse B16F0 cells at 3.7 MBq, iv measured at 24 hrs post injection; format: ADME, organism-based
# [22] = Drug uptake in intestine of C57BL/6J mouse implanted with mouse B16F0 cells at 3.7 MBq, iv measured at 72 hrs post injection by gamma counting analysis; format: ADME, organism-based; conditions: in vivo
# [23] = Drug level in tumor of C57BL/6J mouse implanted with mouse B16F0 cells treated with [125I]IUdR-SS-MTP at 3.7 MBq, iv measured at 15 to 60 mins post injection by RP-HPLC analysis; format: ADME, organism-based, Neoplasm; conditions: in vivo
# [24] = Drug level in blood of C57BL/6J mouse implanted with mouse B16F0 cells treated with [125I]IUdR-SS-MTP at 3.7 MBq, iv measured at 15 to 60 mins post injection by RP-HPLC analysis; format: ADME, organism-based; conditions: in vivo
# [25] = Drug level in urine of C57BL/6J mouse implanted with mouse B16F0 cells treated with [125I]IUdR-SS-MTP at 3.7 MBq, iv measured at 15 to 60 mins post injection by RP-HPLC analysis; format: ADME, organism-based; conditions: in vivo
Structure (SMILES),Ratio [1],Drug uptake [2] [% ID/g],Drug uptake [3] [% ID/g],Activity (Mus musculus [4]),Ratio [5],Drug uptake [6] [% ID/g],Ratio [7],Drug uptake [8] [% ID/g],Activity (Mus musculus [9]),Drug uptake [10] [% ID/g],Kp at 72 h [11],Drug uptake [12] [% ID/g],Drug uptake [13] [% ID/g],Drug uptake [14] [% ID/g],Drug uptake [15] [% ID/g],Drug uptake [16] [% ID/g],Kp at 3 h [17],Drug uptake [18] [% ID/g],Drug uptake [19] [% ID/g],Drug uptake [20] [% ID/g],other results
CCN(CC)CCNC(=O)c1cnc2cc(NC(=O)COc3ccc(SSCCOC(=O)O[C@H]4C[C@H](n5cc([125I])c(=O)[nH]c5=O)O[C@@H]4CO)cc3)ccc2n1,18.24,19.21,0.47,Non-Toxic,5.59,1.94,2.08,0.23,Non-Toxic,1.89,1.12,0.09,0.13,1.23,26.6,0.2,1.07,1.12,2.14,2.57,Kp at 24 h [21]: 5.63; Drug uptake [22]: 0.27 % ID/g
O=c1[nH]c(=O)n([C@H]2C[C@H](O)[C@@H](CO)O2)cc1[125I],24.35,18.09,1.13,Non-Toxic,3.75,1.19,2.58,0.2,Non-Toxic,1.08,14.4,0.04,0.08,0.63,14.26,0.12,1.14,1.3,3.17,1.49,Drug metabolism [23]: Metabolite_Detected; Drug metabolism [24]: Metabolite_Detected; Drug metabolism [25]: Metabolite_Detected; Kp at 24 h [21]: 7.24; Drug uptake [22]: 0.24 % ID/g
